Laboratory results reported in PubChem BioAssay (NCI).
Several values for one entry are separate records, joined by “and”; a condition that tells them apart may be missing. Equal entries are not always repeated.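 Cultured in 96-well plates, cells were exposed to test compound for 48 hours across five concentrations. GI50: concentration for 50% inhibition of growth. Definition used: TGI = concentration required for complete inhibition of growth.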

Legend:
Experiment in all cases: growth of human tumour cells (NCI), 48 h
K-562 leukemia = tested on: K-562 leukemia
RPMI-8226 leukemia = tested on: RPMI-8226 leukemia
COLO 205 colon = tested on: COLO 205 colon
UO-31 renal = tested on: UO-31 renal
HS 578T breast = tested on: HS 578T breast
HCC-2998 colon = tested on: HCC-2998 colon
SF-295 CNS = tested on: SF-295 CNS
NCI-H23 lung = tested on: NCI-H23 lung
NCI-H460 lung = tested on: NCI-H460 lung
SN12C renal = tested on: SN12C renal

Compound	GI50 (K-562 leukemia)	TGI (K-562 leukemia)	GI50 (RPMI-8226 leukemia)	TGI (RPMI-8226 leukemia)	GI50 (COLO 205 colon)	TGI (COLO 205 colon)	GI50 (UO-31 renal)	TGI (UO-31 renal)	GI50 (HS 578T breast) [µM]	TGI (HS 578T breast) [µM]	GI50 (HCC-2998 colon)	TGI (HCC-2998 colon)	GI50 (SF-295 CNS)	TGI (SF-295 CNS)	GI50 (NCI-H23 lung)	TGI (NCI-H23 lung)	GI50 (NCI-H460 lung)	TGI (NCI-H460 lung)	GI50 (SN12C renal) [µM]	TGI (SN12C renal) [µM]
CCCCCCCCCCCCOC1C(C(COC2OC(C(O)CO)C3OC(C)(C)OC23)OC(=O)Nc2ccc([N+](=O)[O-])cc2)OC2OC(C)(C)OC21 (stereo unspecified)	3.87 µM	16.8 µM	2.7 µM	7.2 µM	7.28 µM	23.9 µM	3.62 µM	12.9 µM	1.88	3.74	11.6 µM	25.1 µM	2.21 µM	5.48 µM	12.6 µM	28.2 µM	3.74 µM	13.5 µM	1.78	3.52
O=C(/C=C/CN1CCCCC1)Nc1cc2c(Nc3ccc(F)c(Cl)c3F)ncnc2cc1OCCOC(F)F	0.715 µM	8.12 µM	1.01 µM	3.94 µM	1.6 µM	4.93 µM	< 0.0116 µM	5.89 µM	0.873	6.05	1.6 µM	3.97 µM	1.72 µM	6.42 µM	1.67 µM	6.99 µM	2.01 µM	11 µM	0.318	5.93
CC(C)(O)C1CC(=O)C(C)(C2C(O)CC3(C)C4CC=C5C(CCC(O)C5(C)C)C4(C)C(=O)CC23C)O1 (stereo unspecified)		> 100 µM		> 100 µM		> 100 µM		> 100 µM		> 100		> 100 µM		> 100 µM		> 100 µM		> 100 µM		> 100
C[CH2][Ge]1([CH2]C)[CH2]CC2(CCN(CCCN(C)C)C2)C[CH2]1	0.237 µM and 1.11 µM	2.36 µM and 5.13 µM	0.234 µM and 1.47 µM	0.976 µM and 2.52 µM	0.39 µM and 1.29 µM	1.12 µM and 1.77 µM	1.22 µM and 1.91 µM	2.48 µM and 3.68 µM	1.57	3.3	0.21 µM and 1.68 µM	0.543 µM and 3.8 µM	1.7 µM and 2.42 µM	3.17 µM and 3.67 µM	2.47 µM and 4.11 µM	8.19 µM and 8.41 µM	1.44 µM and 2.53 µM	3.05 µM and 4.6 µM	1.38	4.62
Cn1cc(C2=C(c3cn(CCCSC(=N)N)c4ccccc34)C(=O)NC2=O)c2ccccc21	2.67 µM	6.78 µM	4.61 µM	10.3 µM	0.668 µM	1.92 µM	5.59 µM	16.2 µM	1.91	9.96	3.05 µM	8.89 µM	5.19 µM	14.1 µM	3.32 µM	9.72 µM	3.65 µM	7.54 µM	1.83	5.56
O=C(NC(c1ccccc1)C(O)C(=O)OCc1ccc2c(c1)C(=O)c1ccccc1C2=O)c1ccccc1 (stereo unspecified)		> 100 µM		> 68.1 µM		> 100 µM		10.1 µM		> 100		> 100 µM		69.4 µM		34.5 µM		42.8 µM		47.9
Cn1c([N+](=O)[O-])cnc1/C=C1\Oc2ccc(Cl)cc2C1=O	0.765 µM	> 26.9 µM	0.985 µM	5.58 µM	0.8 µM	3.15 µM	0.394 µM	2.97 µM	1.83	> 24.1	2.02 µM	4.68 µM	1.72 µM	5.65 µM	0.652 µM	4.47 µM	0.352 µM	2.95 µM	0.738	3.46
COc1ccc(/C=C2\CN(Cc3cn(CCCNc4ccnc5cc(Cl)ccc45)nn3)C/C(=C\c3ccc(OC)cc3)C2=O)cc1	2.65 µM	11.7 µM	2.22 µM	10.3 µM	12.2 µM	26.8 µM	3.85 µM	21.4 µM	6.27	29.7	13.8 µM	27.9 µM	14.2 µM	31.4 µM	10.8 µM	34.5 µM	1.86 µM	3.79 µM	13.1	33.8
Cc1nn(-c2ccccc2)c2ncc3c(c12)C(=O)N(Cc1ccccc1)C3=O	3.73 µM	41.9 µM	3.61 µM	31.8 µM	4.99 µM	> 100 µM	2.65 µM	8.17 µM	2.98	> 100	> 100 µM	> 100 µM	3.14 µM	10.7 µM	9.64 µM	66.1 µM	2.55 µM	> 100 µM	9.29	> 100
CN(C)c1ccc(/C=C/C(=O)c2ccc(Nc3nc(Nc4ccc(F)cc4)nc(Nc4ccc(Cl)cc4)n3)cc2)cc1	2.77 µM	> 100 µM	3.53 µM	26.5 µM	4.26 µM	18.7 µM	3.22 µM	21.4 µM	4.12	49.6	15.4 µM	> 100 µM	4.78 µM	31.9 µM	5.95 µM	39.5 µM	3.94 µM	15.6 µM	15.3	> 100
COC(=O)[C@@H](C)C[C@H](Cc1ccccc1)NC(=O)c1cccc([C@@H](C[C@H](C(C)C)N(C)C(=O)[C@@H](NC(=O)[C@H]2CCCCN2C)C(C)C)OC(C)=O)n1	< 0.00167 µM	> 16.7 µM	< 0.00167 µM	> 16.7 µM			0.0127 µM	> 16.7 µM	0.00342	> 11.8	< 0.00167 µM	> 7.55 µM	< 0.00167 µM	0.0142 µM	0.0034 µM	> 16.7 µM	< 0.00167 µM	> 16.7 µM	0.00266	> 16.7
O=C(/C=C\c1ccc(Cl)c(Cl)c1)c1ccccc1	2.82 µM	8.1 µM	2.11 µM	4.86 µM	13.6 µM	29.7 µM	4.09 µM	16.7 µM	17	52.5	4.75 µM	16.9 µM	10.9 µM	23.2 µM			15.9 µM	32.9 µM	6.77	19.9
CCOC(=O)C(Cc1ccc(N(CCCl)CCCl)cc1)NC(=O)C(CC(C)C)NC(C)=O (stereo unspecified)	1.19 µM	7.96 µM	1.96 µM	6.7 µM	1.25 µM	2.7 µM	0.512 µM	2.91 µM	2.55	7.92	1.82 µM	5.95 µM	2.12 µM	16.6 µM	0.679 µM	2.68 µM	0.0763 µM	1.54 µM	0.999	10.9
